According to patent US20080194546A1, “Pyrido-, Pyrazo- and Pyrimido-Pyrimidine Derivatives as mTOR Inhibitors” (KuDOS Pharmaceuticals Limited, priority 2005, published 2008):
Like-named read-outs stand apart in the source and are kept apart here.

What was measured:
mTOR = target: T1, mTOR (Homo sapiens, UniProt P42345); assay: Biological Assay: mTOR enzyme activity, mTOR immunoprecipitated from HeLa cell cytoplasmic extract, recombinant PHAS-1 as substrate; type: biochemical
T1 construct: mTOR protein was isolated from HeLa cell cytoplasmic extract by immunoprecipitation; endogenous in cells; host or cells: HeLa cell cytoplasmic extract (immunoprecipitate)

T47D cells = assay: Cell Proliferation Assay (GI50), sulforhodamine B (SRB) assay; type: cell-based; conditions: for GI50: Homo sapiens, 120 hours, SRB
Protocol: Cell growth was assessed using the sulforhodamine B (SRB) assay (A). T47D (ECACC, 85102201) cells were routinely passaged in RPMI (Invitrogen, 42401018) plus 10% foetal calf serum (FCS), 1% L-glutamine (Gibco BRL, 25030) to a confluence not greater than 80%. To undertake the assay, T47D cells were seeded at 2.5×10^3 cells/well in […] RPMI plus 10% foetal calf serum, 1% L-glutamine in 96 well plates (Costar, 3904) and incubated at 37° C. (+5% CO2) in a humidified incubator. Once the cells had fully adhered (typically following 4-5 hours incubation) the plate was removed from the incubator and 10 μL of the diluent added to the control wells (A1-12 and B1-12). Compound was prepared in a six point semi-log dilution at 10× the final concentration required e.g. for a 6 point range of 30 μM to 100 nM in semi-log steps dilution started at 300 μM in stock plate. Dosing was completed by addition of 10 μL of compound at highest concentration to C1-12 through to the lowest concentration in H1-12. The plates were then incubated for 120 hours prior to SRB analysis.
Upon completion of incubation, media was removed and the cells fixed with […] of ice cold 10% (w/v) trichloroacetic acid. The plates were incubated at 4° C. for 20 minutes and then washed four times with water. Each well of cells was then stained with 100 μl of 0.4% (w/v) SRB (Sulforhodamine B, Sigma, Poole, Dorset, UK, Catalogue number S-9012) in 1% acetic acid for 20 minutes before washing four times with 1% acetic acid. Plates were then dried for 2 hours at room temperature. The dye from the stained cells was solubilized by the addition of 100 μl of 10 mM Tris Base into each well. Plates were gently shaken and left at room temperature for 30 minutes before measuring the optical density at 564 nm on a Microquant microtiter plate reader. The concentration of inhibitor eliciting a 50% reduction in growth (GI50) was determined by analysis of staining intensity of the treated cells as a percentage of the vehicle control wells using Excelfit software.
(A) Skehan, P., Storung, R., Scudiero, R., Monks, A., McMahon, J., Vistica, D., Warren, J. T., Bokesch, H., Kenny, S. and Boyd, M. R. (1990) New […] cytotoxicity assay for anticancer-drug screening. J. Natl. Cancer Inst. 82, 1107-1112.

[1] = target: recombinant mTOR (FLAG-tagged, amino acid residues 1362 to 2549) (Homo sapiens, UniProt P42345); assay: Alternative Enzyme Assay: AlphaScreen, inhibition of phosphorylation by recombinant mTOR; type: biochemical
[2] = tested on: phosphorylation of Serine 473 in Akt in MDA-MB-468 cells; assay: In Vitro phospho-Ser473 Akt Assay (Acumen Explorer); type: cell-based; conditions: Homo sapiens, MDA-MB-468 cells
[3] = Biological Assay, upper bounds, read-out: IC50 values against mTOR
[4] = Alternative Enzyme Assay, upper bounds, read-out: IC50 values against mTOR
[5] = 2 hours, read-out: IC50, phospho-Ser473 Akt assay (cellular IC50, measured by pAkt)
[6] = Alternative Enzyme Assay, read-out: IC50 values against mTOR
[7] = compounds of Formula I(B), read-out: IC50 values against mTOR (phospho-Ser473 Akt assay)
[8] = mTOR from HeLa extract, PHAS-1 substrate, read-out: IC50, tested in the Biological Assay
[9] = AlphaScreen, ATP 20 μM, read-out: IC50, tested in Alternative Enzyme Assay

| Compound | IC50 (mTOR; [3]) | GI50 (T47D cells; upper bounds) | further results |
| --- | --- | --- | --- |
| COc1ccc(-c2ccc3c(N4CCOCC4)nc(N4CCOC[C@@H]4C)nc3n2)cc1CO [Comparative Example 1a, reference compound] |  |  | IC50 of Comparative Examples compared to the corresponding Examples (mTOR; Biological Assay, comparison in words): IC50 Comparative Example 1a>IC50 Example 11a; GI50 of Comparative Examples compared to the corresponding Examples (T47D cells; comparison in words): GI50 Comparative Example 1a>GI50 Example 11a |
| C[C@H]1CCCCN1c1nc(N2CCOCC2)c2ccc(-c3ccc(Cl)cc3)nc2n1 [Example 1g] | < 100 nM | < 300 nM |  |
| C[C@@H]1CN(c2nc(N3CCOCC3)c3ccc(-c4ccco4)nc3n2)C[C@H](C)O1 [Example 1r] | < 1000 nM |  | GI50 (T47D cells): 232 nM |
| CCOC(=O)C1CCCCC1NCc1cc(-c2ccc3c(N4CCOCC4)nc(N4C[C@@H](C)O[C@@H](C)C4)nc3n2)ccc1OC (stereo partly shown) [Example 8ac] | < 100 nM |  | GI50 (T47D cells): < 1000 nM |
| COc1ccc(-c2ccc3c(N4CCOCC4)nc(N4C[C@@H](C)O[C@@H](C)C4)nc3n2)cc1CNCCSCc1ccc(CN(C)C)o1 [Example 8ae] | < 1000 nM | < 300 nM |  |
| C=CCOC(=O)[C@H](CC(C)C)NCc1cc(-c2ccc3c(N4CCOCC4)nc(N4C[C@@H](C)O[C@@H](C)C4)nc3n2)ccc1OC [Example 8af] | < 1000 nM | < 300 nM |  |
| COc1ccc(-c2ccc3c(N4CCOCC4)nc(N4C[C@@H](C)O[C@@H](C)C4)nc3n2)cc1CNCc1ccc(F)cc1 [Example 8ah] | < 100 nM | < 300 nM |  |
| COc1ccc(-c2ccc3c(N4CCOCC4)nc(N4C[C@@H](C)O[C@@H](C)C4)nc3n2)cc1CNC(=S)N1CCCCC1 [Example 8am] | < 1000 nM | < 300 nM |  |
| COc1ccc(-c2ccc3c(N4CCOCC4)nc(N4C[C@@H](C)O[C@@H](C)C4)nc3n2)cc1CNCCc1cccs1 [Example 8an] | < 100 nM | < 300 nM |  |
| COC(=O)[C@H](NCc1cc(-c2ccc3c(N4CCOCC4)nc(N4C[C@@H](C)O[C@@H](C)C4)nc3n2)ccc1OC)c1ccccc1 [Example 8ao] | < 1000 nM | < 300 nM |  |
| COc1ccc(-c2ccc3c(N4CCOCC4)nc(N4C[C@@H](C)O[C@@H](C)C4)nc3n2)cc1CNCc1cccc(CN)c1 [Example 8ap] | < 100 nM | < 300 nM |  |
| COc1ccc(-c2ccc3c(N4CCOCC4)nc(N4C[C@@H](C)O[C@@H](C)C4)nc3n2)cc1CNC(Cc1ccc(O)cc1)C(=O)O (stereo partly shown) [Example 8ar] | < 100 nM | < 300 nM |  |
| COc1ccc(-c2ccc3c(N4CCOCC4)nc(N4C[C@@H](C)O[C@@H](C)C4)nc3n2)cc1CNCCCCCNC(=O)OC(C)(C)C [Example 8as] | < 100 nM | < 300 nM |  |
| COc1ccc(-c2ccc3c(N4CCOCC4)nc(N4C[C@@H](C)O[C@@H](C)C4)nc3n2)cc1CNCc1cccc([N+](=O)[O-])c1 [Example 8at] | < 1000 nM | < 300 nM |  |
| COc1ccc(-c2ccc3c(N4CCOCC4)nc(N4C[C@@H](C)O[C@@H](C)C4)nc3n2)cc1CN[C@H](C)c1ccc([N+](=O)[O-])cc1 [Example 8au] | < 1000 nM | < 300 nM |  |
| COc1ccc(-c2ccc3c(N4CCOCC4)nc(N4C[C@@H](C)O[C@@H](C)C4)nc3n2)cc1CNCc1ccc([35Cl])cc1[35Cl] [Example 8aw] | < 100 nM | < 300 nM |  |
| COc1ccc(-c2ccc3c(N4CCOCC4)nc(N4C[C@@H](C)O[C@@H](C)C4)nc3n2)cc1CNCc1ccccc1[35Cl] [Example 8ax] | < 100 nM | < 300 nM |  |
| COc1ccc(-c2ccc3c(N4CCOCC4)nc(N4C[C@@H](C)O[C@@H](C)C4)nc3n2)cc1CNc1ccc(N2CCOCC2)cc1 [Example 8ay] | < 1000 nM | < 300 nM |  |
| COc1ccc(-c2ccc3c(N4CCOCC4)nc(N4C[C@@H](C)O[C@@H](C)C4)nc3n2)cc1CNC(c1ccccc1)c1ccccc1 [Example 8az] | < 1000 nM | < 300 nM |  |
| OCc1cccc(-c2nc(N3CCOCC3)c3ccc(-c4ccc(Cl)cc4)nc3n2)c1 [Example 9m] |  |  | IC50 [1, 4]: < 1000 nM; IC50 [2, 5]: < 2500 nM |
| COc1ccc(-c2ccc3c(N4CCOCC4)nc(-c4cccc(CN)c4)nc3n2)cc1CO [Example 9n] |  |  | IC50 [1, 4]: < 1000 nM; IC50 [2, 5]: < 2500 nM |
| COc1ccc(-c2ccc3c(N4CCOCC4)nc(-c4cccc(C(F)(F)F)c4)nc3n2)cc1CO [Example 9r] |  |  | IC50 [1, 4]: < 1000 nM; IC50 [2, 5]: < 25000 nM |
| C[C@H]1COCCN1c1nc(N2CCOC[C@@H]2C)c2ccc(-c3ccc(F)c(C#N)c3)nc2n1 [Example 11av, 5-[2,4-bis-((S)-3-methyl-morpholin-4-yl)-pyrido[2,3-d]pyrimidin-7-yl]-2-fluoro-benzonitrile] |  |  | IC50 [1, 6]: < 300 nM; IC50 [2, 7]: < 300 nM |
| COc1ccc(-c2ccc3c(N4CCOC[C@@H]4C)nc(N4C[C@@H](C)O[C@@H](C)C4)nc3n2)cc1CO [Example 11b] |  |  | IC50 (mTOR; [8]): 1.85 nM; IC50 [1, 6]: < 100 nM; IC50 [2, 7]: < 100 nM |
| CCC1CCCCN1c1nc(N2CCOC[C@@H]2C)c2ccc(-c3ccc(OC)c(CO)c3)nc2n1 (stereo partly shown) [Example 11c] |  |  | IC50 (mTOR; [8]): 1.84 nM; IC50 [1, 6]: < 300 nM; IC50 [2, 7]: < 100 nM |
| C[C@H]1COCCN1c1nc(N2CCOC[C@@H]2C)c2ccc(-c3cccc(Cl)n3)nc2n1 [Example 11v] |  |  | IC50 [1, 9]: 180 nM; IC50 [1, 6]: < 300 nM; IC50 ([2]; compounds of Formula I(B), upper bounds, read-out: IC50 values against mTOR (phospho-Ser473 Akt assay)): < 11000 nM |
| COc1ccc(-c2ccc3c(N4CCOC[C@@H]4C)nc(-c4cccc(N)c4)nc3n2)cc1CO [Example 29f] |  |  | IC50 [1, 9]: 96 nM; IC50 [1, 6]: < 100 nM; IC50 [2, 7]: < 300 nM |

Further lines, with some results ahead:

| IC50 (mTOR; [3]) | GI50 (T47D cells; upper bounds) | Compound | further results |
| --- | --- | --- | --- |
| < 100 nM | < 300 nM | COc1ccc(-c2ccc3c(N4CCOCC4)nc(N4C[C@@H](C)O[C@@H](C)C4)nc3n2)cc1CNC1CCC1 [Example 8a] |  |
| < 100 nM |  | COc1ccc(-c2ccc3c(N4CCOCC4)nc(N4C[C@@H](C)O[C@@H](C)C4)nc3n2)cc1CNCC1CCCCC1O (stereo partly shown) [Example 8aa] | GI50 (T47D cells): < 1000 nM |
| < 100 nM | < 300 nM | COc1ccc(-c2ccc3c(N4CCOCC4)nc(N4C[C@@H](C)O[C@@H](C)C4)nc3n2)cc1CNCC1CCCCCC1O (stereo partly shown) [Example 8ab] |  |
| < 100 nM | < 300 nM | COc1ccc(-c2ccc3c(N4CCOCC4)nc(N4C[C@@H](C)O[C@@H](C)C4)nc3n2)cc1CNCCSCCO [Example 8ad] |  |
| < 100 nM | < 300 nM | COc1ccc(-c2ccc3c(N4CCOCC4)nc(N4C[C@@H](C)O[C@@H](C)C4)nc3n2)cc1CNC1CCCC(C)C1C (stereo partly shown) [Example 8ag] |  |
| < 100 nM | < 300 nM | COc1ccc(-c2ccc3c(N4CCOCC4)nc(N4C[C@@H](C)O[C@@H](C)C4)nc3n2)cc1CNCCC1CCCN1C (stereo partly shown) [Example 8ai] |  |
| < 100 nM | < 300 nM | COc1ccc(-c2ccc3c(N4CCOCC4)nc(N4C[C@@H](C)O[C@@H](C)C4)nc3n2)cc1CNCC1CCCO1 (stereo partly shown) [Example 8aj] |  |
| < 100 nM | < 300 nM | CCSCCNCc1cc(-c2ccc3c(N4CCOCC4)nc(N4C[C@@H](C)O[C@@H](C)C4)nc3n2)ccc1OC [Example 8ak] |  |
| < 100 nM | < 300 nM | COc1ccc(-c2ccc3c(N4CCOCC4)nc(N4C[C@@H](C)O[C@@H](C)C4)nc3n2)cc1CNc1cc[nH]n1 [Example 8al] |  |
| < 100 nM | < 300 nM | COc1ccc(-c2ccc3c(N4CCOCC4)nc(N4C[C@@H](C)O[C@@H](C)C4)nc3n2)cc1CNC(C)CO (stereo partly shown) [Example 8aq] |  |
| < 100 nM | < 300 nM | COc1ccc(-c2ccc3c(N4CCOCC4)nc(N4C[C@@H](C)O[C@@H](C)C4)nc3n2)cc1CNC1CCc2ccccc21 (stereo partly shown) [Example 8av] |  |
| < 100 nM | < 300 nM | COc1ccc(-c2ccc3c(N4CCOCC4)nc(N4C[C@@H](C)O[C@@H](C)C4)nc3n2)cc1CNC1CC1 [Example 8b] |  |
